# Data reported in US4477443A, “Tylosin derivatives, their preparation and pharmaceutical compositions containing them” (Zaidan Hojin Biselbutsu Kagaku Kenkyu Kai (Microbial …, priority 1981, dated 1984).
# Where two headings read alike, the source gives them in different places.
# What was measured:
# Assay in all cases: antimicrobial activity (MIC), Table II
# Format in all cases: cell-based
# [1] = test system: Staph. epidermidis IID 886; conditions: Staphylococcus epidermidis, IID886
# B. subtilis ATCC 6633 = conditions: Bacillus subtilis, ATCC6633; B. subtilis ATCC 6633; read-out: MIC
# Staph. aureus ATCC 6538P = conditions: Staphylococcus aureus, ATCC6538P
# B. cereus = conditions: Bacillus cereus; B. cereus; read-out: MIC
# Staph. aureus 226 = conditions: Staphylococcus aureus
# Staph. aureus KC-11 = conditions: Staphylococcus aureus, KC11
# [2] = Staph. aureus ATCC 6538P, read-out: MIC
# [3] = Staph. aureus 226, read-out: MIC
# [4] = Staph. aureus KC-11, read-out: MIC
MIC [1] [µg/mL],MIC (B. subtilis ATCC 6633) [µg/mL],MIC (Staph. aureus ATCC 6538P; [2]) [µg/mL],MIC (B. cereus) [µg/mL],MIC (Staph. aureus 226; [3]) [µg/mL],MIC (Staph. aureus KC-11; [4]) [µg/mL],Structure (SMILES),MIC (Staph. aureus ATCC 6538P) [µg/mL],MIC (Staph. aureus 226; 226) [µg/mL],MIC (Staph. aureus KC-11) [µg/mL]
0.78,0.78,0.78,≤ 0.2,1.56,0.78,"CCC1OC(=O)CC(O)C(C)C(OC2OC(C)CC(N(C)C)C2O)C(CC=O)CC(C)C(=O)C=CC2(C)OC2C1CN(C)C (centres unmarked) [Example 61, 23,4'-dideoxy-23-dimethylamino-12,13-epoxymycaminosyl tylonolide]",–,–,–
0.78,1.56,0.78,≤ 0.2,1.56,1.56,"CCC1OC(=O)CC(O)C(C)C(OC2OC(C)CC(N(C)C)C2O)C(CC=O)CC(C)C(=O)C=CC(C)=CC1CN(C)CCO (centres unmarked) [Example 66, 23,4'-dideoxy-23-N-(2-hydroxyethyl)methylaminomycaminosyl tylonolide]",–,–,–
0.78,0.78,0.78,0.39,0.78,0.78,"CCC1OC(=O)CC(O)C(C)C(OC2OC(C)CC(N(C)C)C2O)C(CC=O)CC(C)C(=O)C=CC(C)=CC1CN(CC)CCO (centres unmarked) [Example 67, 23,4'-dideoxy-23-N-ethyl(2-hydroxyethyl)aminomycaminosyl tylonolide]",–,–,–
0.78,0.78,0.78,0.78,0.78,0.78,"CCC1OC(=O)CC(O)C(C)C(OC2OC(C)CC(N(C)C)C2O)C(CC=O)CC(C)C(=O)C=CC(C)=CC1CN(CC)CC(F)(F)F (centres unmarked) [Example 74, 23,4'-Dideoxy-23-N-(2,2,2-trifluoroethyl)ethylaminomycaminosyl tylonolide]",–,–,–
0.78,0.78,0.78,–,0.78,0.78,"CCC1OC(=O)CC(O)C(C)C(OC2OC(C)C(O)C(N(C)C)C2O)C(CC=O)CC(C)C(=O)C=CC(C)=CC1CN1CCCCC1C (centres unmarked) [Example 87, 23-deoxy-23-(2-methylpiperidino)mycaminosyl tylonolide]",–,–,–
0.39,0.78,0.78,–,0.78,0.78,"CCC1OC(=O)CC(O)C(C)C(OC2OC(C)C(O)C(N(C)C)C2O)C(CC=O)CC(C)C(=O)C=CC(C)=CC1CN1CCCC(C)C1 (centres unmarked) [Example 88, 23-deoxy-23-(3-methylpiperidino)mycaminosyl tylonolide]",–,–,–
0.78,0.78,0.78,–,0.78,0.78,"CCC1OC(=O)CC(O)C(C)C(OC2OC(C)C(O)C(N(C)C)C2O)C(CC=O)CC(C)C(=O)C=CC(C)=CC1CN1CCC(C)CC1 (centres unmarked) [Example 89, 23-deoxy-23-(4-methylpiperidino)mycaminosyl tylonolide]",–,–,–

Structure (SMILES),MIC [1] [µg/mL],MIC (B. subtilis ATCC 6633) [µg/mL],MIC (Staph. aureus ATCC 6538P; [2]) [µg/mL],MIC (B. cereus) [µg/mL],MIC (Staph. aureus 226; [3]) [µg/mL],MIC (Staph. aureus KC-11; [4]) [µg/mL],MIC (Staph. aureus ATCC 6538P) [µg/mL],MIC (Staph. aureus 226; 226) [µg/mL],MIC (Staph. aureus KC-11) [µg/mL]
"CCC1OC(=O)CC(O)C(C)C(OC2OC(C)C(O)C(N(C)C)C2O)C(CC=O)CC(C)C(=O)C=CC(C)=CC1CN1CCCCCCC1 (centres unmarked) [Example 90, 23-deoxy-23-heptamethyleneiminomycaminosyl tylonolide]",0.39,0.39,–,–,–,–,0.39,0.39,0.39
"CCC1OC(=O)CC(O)C(C)C(OC2OC(C)CC(N(C)C)C2O)C(CC=O)CC(C)C(=O)C=CC(C)=CC1CNC1CC1 (centres unmarked) [Example 96, 23,4'-dideoxy-23-cyclopropylaminomycaminosyl tylonolide]",0.39,0.78,–,0.39,0.78,0.78,0.39,–,–
